Here are results for two compounds from patent US12064438B2, “Pharmaceutical preparation excellent in light stability and dissolution property” (priority 2017, dated 2024).

Series [1] relates to influenza virus. Description: Clinical test: randomized, placebo-controlled, double-blind study, time to alleviation of influenza symptoms (10, 20, 40 mg). Type of series: in vivo, human.
For series [2], the system named is influenza virus. Type of series: in vivo, human. The settings on record: 20 to younger than 65 years old, Compound II-6 single 40 or 80 mg, Oseltamivir 75 mg twice a day for 5 days.
The conditions of series [3]: for Adverse events the causal relationship of which cannot be denied, number of episodes: Compound II-6 610 patients, Oseltamivir 513 patients; for Adverse events the causal relationship of which cannot be denied, proportion of patients: Compound II-6 single 40 or 80 mg, Oseltamivir 75 mg twice a day for 5 days.
Source text: The number of side-effect episodes and the number of patients with side effect were counted for each administration group.
The mark [4] stands for this setting: single oral 20 mg, Cox proportional hazard model relative to placebo.
The mark [5] stands for this setting: single oral 40 mg, baseline symptom moderate or severe.

As to `COC(=O)OCOc1c2n(ccc1=O)N([C@@H]1c3ccccc3SCc3c1ccc(F)c3F)[C@@H]1COCCN1C2=O` [Compound II-6], the “Time until muscular or joint pain symptom is alleviated, Hazard ratio” value in the series on influenza virus [1] (single oral 10 mg, Cox proportional hazard model relative to placebo) worked out at 0.77. Besides, in the series with influenza virus [1] (setting [4]), the “Time to alleviation of influenza symptoms, Hazard ratio” value was 0.81 and the “Time until nasal congestion symptom is alleviated, Hazard ratio” value was found to be 0.59. Besides, in the series on influenza virus [1] (single oral 40 mg), the “median time until muscular or joint pain was improved, shorter in the 40 mg administered group than the placebo group” value was 16.4 h and the “median time until nasal congestion was improved, shorter in the 40 mg administered group than the placebo group” value stood at 21.0 h. Further, the “Time until feverishness or chills symptom is alleviated, Hazard ratio” value in the series on influenza virus [1] (single oral 40 mg, Cox proportional hazard model relative to placebo) was determined as 0.71. In the series with influenza virus [1] (setting [5]), the “Time until muscular or joint pain symptom is alleviated, Difference from placebo” value was -16.4 h and the “Time until nasal congestion symptom is alleviated, Difference from placebo” value was -21 h. The “time to termination of viral shedding based on virus titer” value in the series with influenza virus [2] is 24.0 h. Moreover, the “Amount of change in virus titer from baseline, Mean” value with influenza virus [2] (Day 5) is −4.95 log10 [TCID50/mL]. For the same compound, in series [3], the “Adverse events the causal relationship of which cannot be denied, number of episodes” value was 37 episodes and the “Adverse events the causal relationship of which cannot be denied, proportion of patients” value was 4.4%. For the same compound, the “Severe adverse events the causal relationship of which cannot be denied” value in series [3] (human, in vivo) was “not reported”.

Turning to `CCOC(=O)C1=C[C@@H](OC(CC)CC)[C@H](NC(C)=O)[C@@H](N)C1` [Oseltamivir, reference compound], the “time to termination of viral shedding based on virus titer” value with influenza virus [2] is 72.0 h. In series [3], the “Adverse events the causal relationship of which cannot be denied, number of episodes” value was 53 episodes and the “Adverse events the causal relationship of which cannot be denied, proportion of patients” value is 8.4%.
